Results as given in patent US20040253665A1, “Novel peptide-producing enzyme, microbe producing the enzyme and method for dipeptide synthesis using them” (AJINOMOTO CO., INC., priority 2002, published 2004).
Non-standard residues stand in square brackets, D forms with d. Residues, ends and D or L forms follow the SMILES beside them.

The compounds below were run on enzyme (SP-Sepharose HP fraction) derived from Sphingobacterium sp. strain FERM BP-8124 (assay: not given). Details: Table 15-1; carboxy component 100 mM, amine component 150 mM, 0.33 units enzyme, pH 9.0, 25° C., 1.5 hours.
Assay type: biochemical
Method: Substrate specificity was examined for enzyme derived from Sphingobacterium sp. strain FERM BP-8124 (Depositary institution: National Institute for Advanced Industrial Science and Technology, International Patent Organism Depositary, Address of depositary institution: Central. 6, 1-1-1 Higashi, Tsukuba City, Ibaraki Prefecture, Japan, International deposit date: Jul. 22, 2002). 100 μl of 100 mM borate buffer (pH 9.0) containing the various carboxy components at a final concentration of 100 mM and the various amine components at a final concentration of 150 mM shown in Tables 15-1 to 15-4, the SP-Sepharose HP fraction enzyme purified in Example 22 (addition of 0.33 units in the reaction liquid) and 10 mM EDTA were allowed to react at 25° C. for 1.5 hours. […] In addition, hydrochlorides were used for all carboxy components.
Substrate specificity with respect to oligopeptide production was examined for enzyme derived from Sphingobacterium sp. strain FERM BP-8124 (Depositary institution: National Institute for Advanced Industrial Science and Technology,.International Patent Organism Depositary, Address of depositary institution: Chuo Dai-6, 1-1 Higashi 1-Chome, Tsukuba-shi, Ibaraki-ken, Japan, International deposit date: Jul. 22, 2002). A 100 μl aliquot of 100 mM borate buffer (pH 9.0) containing the various carboxy components at a final concentration of 100 mM and the various amine components at a final concentration of 150 mM shown in Table 16, the SP-Sepharose HP fraction enzyme purified in Example 22 (addition of 0.33 units in the reaction liquid) and 10 mM EDTA were allowed to react for 1.5 hours at 25° C. Furthermore, hydrochloride salts were used for all carboxy components.

Row | Produced peptide [mM] | SMILES
1 | 52.3 | C[C@H](N)C(=O)N[C@@H](CC(N)=O)C(=O)O [L-Ala-L-Asn] (H-Ala-Asn-OH)
2 | 2.3 | C[C@H](N)C(=O)N[C@@H](CC(=O)O)C(=O)O [L-Ala-L-Asp] (H-Ala-Asp-OH)
3 | 39.1 | C[C@H](N)C(=O)N[C@@H](CCC(=O)O)C(=O)O [L-Ala-L-Glu] (H-Ala-Glu-OH)
4 | 24.7 | CC[C@H](C)[C@H](NC(=O)[C@H](C)N)C(=O)O [L-Ala-L-Ile] (H-Ala-Ile-OH)
5 | 71.2 | C[C@H](N)C(=O)N[C@@H](CCCCN)C(=O)O [L-Ala-L-Lys] (H-Ala-Lys-OH)

Second part, the compound before the results:

Row | SMILES | Produced peptide [mM]
6 | C[C@@H](N)C(=O)N[C@H](CO)C(=O)O [D-Ala-D-Ser] (H-[dA]-[dS]-OH) | 5.5
7 | C[C@@H](N)C(=O)N[C@@H](CO)C(=O)O [D-Ala-L-Ser] (H-[dA]-Ser-OH) | 24.1
8 | C[C@H](N)C(=O)N[C@H](CO)C(=O)O [L-Ala-D-Ser] (H-Ala-[dS]-OH) | 3.3
9 | C[C@H](N)C(=O)NCC(=O)O [L-Ala-Gly] (H-Ala-Gly-OH) | 11.1
10 | C[C@H](N)C(=O)N[C@@H](C)C(=O)O [L-Ala-L-Ala] (H-Ala-Ala-OH) | 13.1
11 | C[C@H](N)C(=O)N[C@H](C(=O)O)[C@@H](C)O [L-Ala-L-Thr] (H-Ala-Thr-OH) | 47.3
12 | C[C@H](N)C(=O)N[C@@H](Cc1c[nH]c2ccccc12)C(=O)O [L-Ala-L-Trp] (H-Ala-Trp-OH) | 46.0
13 | C[C@H](N)C(=O)N[C@@H](Cc1ccc(O)cc1)C(=O)O [L-Ala-L-Tyr] (H-Ala-Tyr-OH) | 11.1
14 | CC(C)[C@H](NC(=O)[C@H](C)N)C(=O)O [L-Ala-L-Val] (H-Ala-Val-OH) | 10.9

Same assay, conditions: Table 15-2; carboxy component 100 mM, L-Gln 150 mM, 0.33 units enzyme, pH 9.0, 25° C., 1.5 hours

Row | Produced peptide [mM] | SMILES
15 | 61.1 | NCC(=O)N[C@@H](CCC(N)=O)C(=O)O [Gly-L-Gln] (H-Gly-Gln-OH)
16 | 17.2 | NC(=O)CC[C@H](NC(=O)[C@@H](N)CCCN=C(N)N)C(=O)O [L-Arg-L-Gln] (H-Arg-Gln-OH)
17 | 0.1 | NC(=O)CC[C@H](NC(=O)[C@@H](N)CCC(N)=O)C(=O)O [L-Gln-L-Gln] (H-Gln-Gln-OH)
18 | 6.4 | CC[C@H](C)[C@H](N)C(=O)N[C@@H](CCC(N)=O)C(=O)O [L-Ile-L-Gln] (H-Ile-Gln-OH)

Same assay, conditions: Table 16, oligopeptide production; carboxy component 100 mM, amine component 150 mM, 0.33 units enzyme, pH 9.0, 25° C., 1.5 hours

Row | SMILES | Produced peptide [mM]
19 | C[C@H](N)C(=O)N[C@@H](C)C(=O)O [L-Ala-L-Ala] (H-Ala-Ala-OH) | 25.6

The compounds below were run on peptide-producing enzyme (Mono S fraction) from Empedobacter brevis strain FERM BP-8113 (assay: Enzyme substrate specificity (1)-(10), (13), (14)). Details: 100 mM L-alanine methyl ester hydrochloride, L-amino acid 150 mM, pH 9.0, 25° C., 3 hours.
Assay type: biochemical
Excerpt: Ester specificity was examined in the case of using L-amino acid ester for the carboxy component. […] The amounts of L-Ala-L-Gln produced in this reaction are shown in Table 4 (HCl represents hydrochloride in Table 4). Peptide production was examined in the case of using L-alanine methyl ester for the carboxy component and using various L-amino acids for the amine component. […] (The “+” mark indicates those peptides for which production was confirmed but which were unable to be quantified due to the absence of a standard, while “tr” indicates a trace amount.) Peptide production was examined in the case of using various types of L-amino acid methyl esters for the carboxy component and using L-glutamine for the amine component. […] Peptide production was examined in the case of using various L-amino acid methyl esters for the carboxy component and various L-amino acids for the amine component. […] (The “tr” indicates a trace amount.) Furthermore, Tween-80 was added to the reaction system to a final concentration of 0.1% in the case of using L-Trp-OMe. (The “+” mark indicates those peptides for which production was confirmed but which were unable to be quantified due to the absence of a standard.) […] (The “tr” indicates a trace amount.) Peptide production was examined using various L-amino acid amides for the carboxy component, and various L-amino acids for the amine component. […] Peptide production was examined in the case of using various L-alanine methyl esters for the carboxy component and C-protected L-amino acids for the amine component. […] Peptide production was examined in the case of using various amino acid methyl esters for the carboxy component and methylamine for the amine component. […] Peptide production was examined in the case of using β-amino acid ester for the carboxy component or β-amino acid for the amine component. […] (The “tr” indicates a trace amount.) Oligopeptide production was examined in the case of using L-amino acid ester for the carboxy component and peptide for the amine component. […] Substrate specificity was additionally assessed using the same enzyme fraction as that used in Example 5. […] (A “+” mark indicates those for which production was confirmed but which were unable to be quantified due to the absence of a standard, while “tr” indicates a trace amount). Substrate specificity with respect to oligopeptide production was assessed using the same enzyme fraction as Example 26. […] (A “+” mark indicates those for which production was confirmed but which were unable to be quantified due to the absence of a standard, while “tr” indicates a trace amount). It should be noted that hydrochlorides were used for all of the carboxy components.

Row | Produced peptide [mM] | SMILES
20 | 65.5 | C[C@H](N)C(=O)N[C@@H](CC(N)=O)C(=O)O [L-Ala-L-Asn] (H-Ala-Asn-OH)
21 | 2.1 | C[C@H](N)C(=O)N[C@@H](CC(=O)O)C(=O)O [L-Ala-L-Asp] (H-Ala-Asp-OH)
22 | 42.9 | C[C@H](N)C(=O)N[C@@H](CCC(=O)O)C(=O)O [L-Ala-L-Glu] (H-Ala-Glu-OH)
23 | 33.9 | CC[C@H](C)[C@H](NC(=O)[C@H](C)N)C(=O)O [L-Ala-L-Ile] (H-Ala-Ile-OH)
24 | 71.8 | C[C@H](N)C(=O)N[C@@H](CCCCN)C(=O)O [L-Ala-L-Lys] (H-Ala-Lys-OH)

Further lines, the compound ahead of its results:

Row | SMILES | Produced peptide [mM]
25 | C[C@H](N)C(=O)NCC(=O)O [L-Ala-Gly] (H-Ala-Gly-OH) | 13.7
26 | C[C@H](N)C(=O)N[C@@H](C)C(=O)O [L-Ala-L-Ala] (H-Ala-Ala-OH) | 25.4
27 | C[C@H](N)C(=O)N[C@H](C(=O)O)[C@@H](C)O [L-Ala-L-Thr] (H-Ala-Thr-OH) | 53.9
28 | C[C@H](N)C(=O)N[C@@H](Cc1c[nH]c2ccccc12)C(=O)O [L-Ala-L-Trp] (H-Ala-Trp-OH) | 53.9
29 | C[C@H](N)C(=O)N[C@@H](Cc1ccc(O)cc1)C(=O)O [L-Ala-L-Tyr] (H-Ala-Tyr-OH) | 17.6
30 | CC(C)[C@H](NC(=O)[C@H](C)N)C(=O)O [L-Ala-L-Val] (H-Ala-Val-OH) | 20.8

Same assay, conditions: L or D amino acid methyl ester hydrochloride 100 mM, L or D amino acid 150 mM, pH 9.0, 25° C., 3 hours

Row | Produced peptide [mM] | SMILES
31 | 0.2 | C[C@@H](N)C(=O)N[C@H](CO)C(=O)O [D-Ala-D-Ser] (H-[dA]-[dS]-OH)
32 | 20.3 | C[C@@H](N)C(=O)N[C@@H](CO)C(=O)O [D-Ala-L-Ser] (H-[dA]-Ser-OH)
33 | 5.4 | C[C@H](N)C(=O)N[C@H](CO)C(=O)O [L-Ala-D-Ser] (H-Ala-[dS]-OH)

Same assay, conditions: L-amino acid ester 100 mM, amino acid or peptide amine component 150 mM, pH 9.0, 25° C., 3 hours

Row | SMILES | Produced peptide [mM]
34 | C[C@H](N)C(=O)N[C@@H](C)C(=O)O [L-Ala-L-Ala] (H-Ala-Ala-OH) | 28.7

Same assay, conditions: L-amino acid methyl ester hydrochloride 100 mM, 150 mM L-glutamine, pH 9.0, 25° C., 3 hours

Row | Produced peptide [mM] | SMILES
35 | 54.7 | NCC(=O)N[C@@H](CCC(N)=O)C(=O)O [Gly-L-Gln] (H-Gly-Gln-OH)
36 | 7.1 | NC(=O)CC[C@H](NC(=O)[C@@H](N)CCCN=C(N)N)C(=O)O [L-Arg-L-Gln] (H-Arg-Gln-OH)
37 | 0.3 | NC(=O)CC[C@H](NC(=O)[C@@H](N)CCC(N)=O)C(=O)O [L-Gln-L-Gln] (H-Gln-Gln-OH)
38 | 8.4 | CC[C@H](C)[C@H](N)C(=O)N[C@@H](CCC(N)=O)C(=O)O [L-Ile-L-Gln] (H-Ile-Gln-OH)
